Laboratory results from US20230044304A1, “Nitric oxide generation, dilution, analysis, and topical application compositions, systems, apparatus and methods” (SYK Technologies LLC, priority 2010, published 2023).
Entries after “also recorded” stand apart in the source; their conditions may differ.

Key:
[1] = system: bacteria on skin of hands; assay: Hand exposed to nitric oxide gas in a bag versus DIAL antibacterial soap, zone dilution plating; format: in vivo, human
Excerpt: An experiment 46 used to determine the anti-microbial effectiveness of nitric oxide is illustrated in FIG. 72. In the experiment, five volunteers were selected 48. From a first hand of each volunteer, a technician using sterile gloves collected 50 a sample. This was accomplished by rubbing the back of the volunteer's hand with a sterile cotton collection swab for ten seconds. The swab was then applied 52 to a nutrient agar petri dish using the five corner or zone dilution method.
The five corner or zone dilution method involves mechanically diluting bacteria on a streak (blood agar) plate by sequentially spreading the bacteria across the plate in each of five zones. As the concentration of bacteria increases so do the number of zones containing bacteria. Bacteria on agar plate become visible as distinct circular colonies. Each colony represents an individual cell which has divided repeatedly to form a patch. The number of bacteria can be estimated by counting the number of patches or how far the bacteria is diluted by streaking it on the agar plate through the five zones.
After the sample was collected 50, the first hand was cleaned 54 using nitric oxide. This was done by placing the hand of the volunteer into a one-gallon plastic freezer bag. The bag was then inflated with nitric oxide through tubing attached to a portable nitric oxide generator. […]

[2] = system: bacteria on a surface, such as a person's skin; assay: Nitric oxide dose required to kill bacteria on a surface

## [N]=O [nitric oxide]
[1]; 1,000 ppm nitric oxide for fifteen minutes versus DIAL antibacterial soap for 2 minutes, five volunteers
  bacterial colony count compared with washing with antibacterial soap: superior to soaps; also recorded: lower bacterial colony count
[1]; experiments by applicant on healthy skin
  colony counts of bacteria exposed to nitric oxide: substantial reductions in colony counts
[2]
  dose required to kill bacteria on a surface: ≥ 320 ppm
